Measurements reported in article PMC11487561 (ACS Chemical Neuroscience, 2024).

Key:
[1] = MDCK-MDR1 permeability assay; format: in vitro ADME; conditions: dog
hCav1.2 = molecular target: T1, hCav1.2 (Homo sapiens, UniProt Q13936); assay: Cardiac Ion Channel Panel – Charles River (QPatch HT patch clamp); format: cell-based
T1 construct: Charles River Laboratories
Procedure: (§1) page 17: Table S3. Cardiac Ion Channel Panel - Charles River Laboratories for VU6016235 Ion Channel Concentration Mean % Standard Standard n (μM) Inhibition Deviation Error hCav1.2 10 13.9 8.9 5.1 3 hCav3.2 10 6.7 2.7 1.4 4 hHCN2 10 2.6 1.9 1.1 3 hERG 10 10.9 0.9 0.4 4 hKv1.5 10 1.3 1.8 0.9 4 […] 10 4.1 5.6 2.8 4 hKv1.3 10 9 2.9 1.7 3 hNav1.5 (Tonic) 10 5.8 0.6 0.4 3 […] (Phasic) The in vitro effects of VU6016235 were evaluated at room temperature using the QPatch HT® (Sophion Bioscience A/S, Denmark), an automatic parallel patch clamp system. VU6016235 was evaluated at a concentration of 10 μM and tested in at least 3 cells (n ≥ 3). The duration of exposure to each test article concentration was at least 5 minutes. Rat Amphetamine-Induced Hyperlocomotion (AHL) Protocol Male Harlan Sprague Dawley rats with a mean body weight of 240 g (range 221-264 g) were tested in SmartFrame Open Field locomotor activity test chambers to automatically record locomotor activity. All […] for an additional 30 min with either vehicle or a dose of VU6016235 or the comparator M 4 PAM […] Next, rats were injected subcutaneously with vehicle or a dose of 0.75 mg/kg amphetamine and then monitored for an additional 60 min. Changes in locomotor activity were recorded for a total of 120 min. Locomotor data were expressed as the number of photobeam breaks/5 min intervals across the 120-min test session or as the total ambulation, calculated as sum of photobeam beam breaks from the time of amphetamine administration (60 min) until the end of the study (120 min). Time course data were analyzed by two-way ANOVA with main effects of treatment and time; changes in total ambulation were analyzed by one-way ANOVA followed by Dunnett's post hoc test (GraphPad Prism 7 [GraphPad Software, San Diego, CA]). For all tests, α ≤ 0.05 was considered to represent statistical significance. Finally, percent reversal data were calculated in Microsoft Excel using the following formula: Percent Reversal = 100 - {[(total ambulation in individual animal from t = 60 to t = 120) / (mean total ambulation S17

hCav3.2 = molecular target: T2, hCav3.2 (Homo sapiens, UniProt O95180); assay: as above; format: cell-based
T2 construct: Charles River Laboratories
Procedure: as §1

hERG = molecular target: T3, hERG (Homo sapiens, UniProt Q12809); assay: as above; format: cell-based
T3 construct: Charles River Laboratories
Procedure: as §1

hHCN2 = molecular target: T4, hHCN2 (Homo sapiens, UniProt Q9UL51); assay: as above; format: cell-based
T4 construct: Charles River Laboratories
Procedure: as §1

hKv1.3 = molecular target: T5, hKv1.3 (Homo sapiens, UniProt P22001); assay: as above; format: cell-based
T5 construct: Charles River Laboratories
Procedure: as §1

hKvLQT1/minK = molecular target: T6, hKvLQT1/minK (Homo sapiens, UniProt P51787); assay: as above; format: cell-based
T6 construct: Charles River Laboratories
Procedure: as §1

Adrenergic α1B = molecular target: T7, Adrenergic α1B (Rattus norvegicus, UniProt P15823); assay: Lead Profiling Screen – Eurofins Panlabs; format: binding; conditions: read-out: % inh at 10 μM
T7 construct: Eurofins Panlabs (contract screen)

Adrenergic β2 = molecular target: T8, Adrenergic β2 (Homo sapiens, UniProt P07550); assay: Lead Profiling Screen – Eurofins Panlabs; format: binding; conditions: read-out: % inh at 10 μM
T8 construct: Eurofins Panlabs (contract screen)

Androgen (Testosterone) = assay: Lead Profiling Screen – Eurofins Panlabs; format: binding, human
Bradykinin B1 = molecular target: T9, Bradykinin B1 (Homo sapiens, UniProt P46663); assay: Lead Profiling Screen – Eurofins Panlabs; format: binding; conditions: read-out: % inh at 10 μM
T9 construct: Eurofins Panlabs (contract screen)

[2] = test system: Calcium Channel L-Type, Benzothiazepine; assay: Lead Profiling Screen – Eurofins Panlabs; format: binding, rat
Calcium Channel N-Type = molecular target: T10, Calcium Channel N-Type (Rattus norvegicus, UniProt Q02294); assay: Lead Profiling Screen – Eurofins Panlabs; format: binding; conditions: read-out: % inh at 10 μM
T10 construct: Eurofins Panlabs (contract screen)

Dopamine D3 = molecular target: T11, Dopamine D3 (Homo sapiens, UniProt P35462); assay: Lead Profiling Screen – Eurofins Panlabs; format: binding; conditions: read-out: % inh at 10 μM
T11 construct: Eurofins Panlabs (contract screen)

Dopamine D4.2 = assay: Lead Profiling Screen – Eurofins Panlabs; format: binding, human
[3] = test system: GABAA, Flunitrazepam, Central; assay: Lead Profiling Screen – Eurofins Panlabs; format: binding, rat
Histamine H1 = Histamine H1 (Homo sapiens, UniProt P35367); assay: Lead Profiling Screen – Eurofins Panlabs; format: binding; conditions: read-out: % inh at 10 μM
Imidazoline I2, Central = assay: Lead Profiling Screen – Eurofins Panlabs; format: binding, rat
Melatonin MT1 = Melatonin MT1 (Homo sapiens, UniProt P48039); assay: Lead Profiling Screen – Eurofins Panlabs; format: binding; conditions: read-out: % inh at 10 μM
Muscarinic M1 = Muscarinic M1 (Homo sapiens, UniProt P11229); assay: Lead Profiling Screen – Eurofins Panlabs; format: binding; conditions: read-out: % inh at 10 μM
Nicotinic Acetylcholine = assay: Lead Profiling Screen – Eurofins Panlabs; format: binding, human
Opiate δ1 (OP1, DOP) = Opiate δ1 (OP1, DOP) (Homo sapiens, UniProt P41143); assay: Lead Profiling Screen – Eurofins Panlabs; format: binding; conditions: read-out: % inh at 10 μM
Opiate μ (OP3, MOP) = Opiate μ (OP3, MOP) (Homo sapiens, UniProt P35372); assay: Lead Profiling Screen – Eurofins Panlabs; format: binding; conditions: read-out: % inh at 10 μM
Prostanoid EP4 = Prostanoid EP4 (Homo sapiens, UniProt P35408); assay: Lead Profiling Screen – Eurofins Panlabs; format: binding; conditions: read-out: % inh at 10 μM
Rolipram = assay: Lead Profiling Screen – Eurofins Panlabs; format: binding, rat
[4] = molecular target: Serotonin (5-Hydroxytryptamine) 5-HT3 (Homo sapiens, UniProt P46098); assay: Lead Profiling Screen – Eurofins Panlabs; format: binding; conditions: read-out: % inh at 10 μM
[5] = molecular target: Transporter, Norepinephrine (NET) (Homo sapiens, UniProt P23975); assay: Lead Profiling Screen – Eurofins Panlabs; format: binding; conditions: read-out: % inh at 10 μM
[6] = molecular target: Transporter, Serotonin (5-Hydroxytryptamine) (SERT) (Homo sapiens, UniProt P31645); assay: Lead Profiling Screen – Eurofins Panlabs; format: binding; conditions: read-out: % inh at 10 μM

Melatonin MT1, sequence (P48039 whole entry): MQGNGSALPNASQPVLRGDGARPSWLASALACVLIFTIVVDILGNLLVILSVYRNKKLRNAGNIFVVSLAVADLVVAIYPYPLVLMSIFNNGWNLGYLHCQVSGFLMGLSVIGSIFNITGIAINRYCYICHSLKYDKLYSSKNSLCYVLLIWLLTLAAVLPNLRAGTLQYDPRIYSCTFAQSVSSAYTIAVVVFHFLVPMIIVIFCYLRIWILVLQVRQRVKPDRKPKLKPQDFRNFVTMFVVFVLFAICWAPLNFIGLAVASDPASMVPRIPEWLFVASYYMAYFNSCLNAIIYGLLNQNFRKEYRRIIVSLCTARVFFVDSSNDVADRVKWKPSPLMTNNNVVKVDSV
T4 sequence (Q9UL51 whole entry): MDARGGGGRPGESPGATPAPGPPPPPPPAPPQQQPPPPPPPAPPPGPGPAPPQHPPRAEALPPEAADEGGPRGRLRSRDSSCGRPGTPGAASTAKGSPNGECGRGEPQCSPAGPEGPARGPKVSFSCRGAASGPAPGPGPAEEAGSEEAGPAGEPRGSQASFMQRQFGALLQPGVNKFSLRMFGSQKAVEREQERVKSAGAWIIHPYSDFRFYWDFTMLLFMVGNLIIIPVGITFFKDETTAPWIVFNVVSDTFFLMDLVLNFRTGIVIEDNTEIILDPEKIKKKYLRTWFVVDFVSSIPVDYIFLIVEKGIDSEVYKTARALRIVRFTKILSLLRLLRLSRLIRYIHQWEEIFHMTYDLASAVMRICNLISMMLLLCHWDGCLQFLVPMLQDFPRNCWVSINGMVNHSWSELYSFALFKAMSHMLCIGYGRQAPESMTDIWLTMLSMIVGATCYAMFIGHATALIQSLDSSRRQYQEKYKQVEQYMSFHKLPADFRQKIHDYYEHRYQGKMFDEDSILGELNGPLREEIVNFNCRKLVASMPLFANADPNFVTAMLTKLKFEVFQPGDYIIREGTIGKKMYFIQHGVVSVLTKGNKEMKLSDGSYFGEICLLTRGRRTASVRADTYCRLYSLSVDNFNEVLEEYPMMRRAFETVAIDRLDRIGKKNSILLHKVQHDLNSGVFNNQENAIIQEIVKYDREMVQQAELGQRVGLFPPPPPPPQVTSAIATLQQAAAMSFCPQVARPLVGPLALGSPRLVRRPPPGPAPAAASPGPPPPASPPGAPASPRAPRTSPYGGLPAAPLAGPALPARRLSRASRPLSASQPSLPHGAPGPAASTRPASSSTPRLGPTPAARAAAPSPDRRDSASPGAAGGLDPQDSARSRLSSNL
Transporter, Norepinephrine (NET), sequence (P23975 whole entry): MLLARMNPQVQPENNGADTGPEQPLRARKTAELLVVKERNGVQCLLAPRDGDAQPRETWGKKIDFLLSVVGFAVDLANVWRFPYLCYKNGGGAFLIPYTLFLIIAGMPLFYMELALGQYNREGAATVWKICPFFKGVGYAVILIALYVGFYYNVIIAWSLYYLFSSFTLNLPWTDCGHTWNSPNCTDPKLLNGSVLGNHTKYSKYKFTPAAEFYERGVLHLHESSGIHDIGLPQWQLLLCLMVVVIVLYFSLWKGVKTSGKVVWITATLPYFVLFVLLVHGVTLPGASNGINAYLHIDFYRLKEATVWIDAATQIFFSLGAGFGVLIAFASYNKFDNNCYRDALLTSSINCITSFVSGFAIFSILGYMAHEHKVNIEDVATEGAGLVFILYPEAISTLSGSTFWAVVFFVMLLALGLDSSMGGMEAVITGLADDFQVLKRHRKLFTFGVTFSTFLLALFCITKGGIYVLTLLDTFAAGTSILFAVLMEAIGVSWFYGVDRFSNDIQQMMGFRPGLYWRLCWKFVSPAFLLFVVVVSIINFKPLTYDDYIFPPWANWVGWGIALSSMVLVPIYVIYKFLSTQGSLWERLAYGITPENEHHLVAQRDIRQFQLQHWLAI
T2 sequence (O95180 whole entry): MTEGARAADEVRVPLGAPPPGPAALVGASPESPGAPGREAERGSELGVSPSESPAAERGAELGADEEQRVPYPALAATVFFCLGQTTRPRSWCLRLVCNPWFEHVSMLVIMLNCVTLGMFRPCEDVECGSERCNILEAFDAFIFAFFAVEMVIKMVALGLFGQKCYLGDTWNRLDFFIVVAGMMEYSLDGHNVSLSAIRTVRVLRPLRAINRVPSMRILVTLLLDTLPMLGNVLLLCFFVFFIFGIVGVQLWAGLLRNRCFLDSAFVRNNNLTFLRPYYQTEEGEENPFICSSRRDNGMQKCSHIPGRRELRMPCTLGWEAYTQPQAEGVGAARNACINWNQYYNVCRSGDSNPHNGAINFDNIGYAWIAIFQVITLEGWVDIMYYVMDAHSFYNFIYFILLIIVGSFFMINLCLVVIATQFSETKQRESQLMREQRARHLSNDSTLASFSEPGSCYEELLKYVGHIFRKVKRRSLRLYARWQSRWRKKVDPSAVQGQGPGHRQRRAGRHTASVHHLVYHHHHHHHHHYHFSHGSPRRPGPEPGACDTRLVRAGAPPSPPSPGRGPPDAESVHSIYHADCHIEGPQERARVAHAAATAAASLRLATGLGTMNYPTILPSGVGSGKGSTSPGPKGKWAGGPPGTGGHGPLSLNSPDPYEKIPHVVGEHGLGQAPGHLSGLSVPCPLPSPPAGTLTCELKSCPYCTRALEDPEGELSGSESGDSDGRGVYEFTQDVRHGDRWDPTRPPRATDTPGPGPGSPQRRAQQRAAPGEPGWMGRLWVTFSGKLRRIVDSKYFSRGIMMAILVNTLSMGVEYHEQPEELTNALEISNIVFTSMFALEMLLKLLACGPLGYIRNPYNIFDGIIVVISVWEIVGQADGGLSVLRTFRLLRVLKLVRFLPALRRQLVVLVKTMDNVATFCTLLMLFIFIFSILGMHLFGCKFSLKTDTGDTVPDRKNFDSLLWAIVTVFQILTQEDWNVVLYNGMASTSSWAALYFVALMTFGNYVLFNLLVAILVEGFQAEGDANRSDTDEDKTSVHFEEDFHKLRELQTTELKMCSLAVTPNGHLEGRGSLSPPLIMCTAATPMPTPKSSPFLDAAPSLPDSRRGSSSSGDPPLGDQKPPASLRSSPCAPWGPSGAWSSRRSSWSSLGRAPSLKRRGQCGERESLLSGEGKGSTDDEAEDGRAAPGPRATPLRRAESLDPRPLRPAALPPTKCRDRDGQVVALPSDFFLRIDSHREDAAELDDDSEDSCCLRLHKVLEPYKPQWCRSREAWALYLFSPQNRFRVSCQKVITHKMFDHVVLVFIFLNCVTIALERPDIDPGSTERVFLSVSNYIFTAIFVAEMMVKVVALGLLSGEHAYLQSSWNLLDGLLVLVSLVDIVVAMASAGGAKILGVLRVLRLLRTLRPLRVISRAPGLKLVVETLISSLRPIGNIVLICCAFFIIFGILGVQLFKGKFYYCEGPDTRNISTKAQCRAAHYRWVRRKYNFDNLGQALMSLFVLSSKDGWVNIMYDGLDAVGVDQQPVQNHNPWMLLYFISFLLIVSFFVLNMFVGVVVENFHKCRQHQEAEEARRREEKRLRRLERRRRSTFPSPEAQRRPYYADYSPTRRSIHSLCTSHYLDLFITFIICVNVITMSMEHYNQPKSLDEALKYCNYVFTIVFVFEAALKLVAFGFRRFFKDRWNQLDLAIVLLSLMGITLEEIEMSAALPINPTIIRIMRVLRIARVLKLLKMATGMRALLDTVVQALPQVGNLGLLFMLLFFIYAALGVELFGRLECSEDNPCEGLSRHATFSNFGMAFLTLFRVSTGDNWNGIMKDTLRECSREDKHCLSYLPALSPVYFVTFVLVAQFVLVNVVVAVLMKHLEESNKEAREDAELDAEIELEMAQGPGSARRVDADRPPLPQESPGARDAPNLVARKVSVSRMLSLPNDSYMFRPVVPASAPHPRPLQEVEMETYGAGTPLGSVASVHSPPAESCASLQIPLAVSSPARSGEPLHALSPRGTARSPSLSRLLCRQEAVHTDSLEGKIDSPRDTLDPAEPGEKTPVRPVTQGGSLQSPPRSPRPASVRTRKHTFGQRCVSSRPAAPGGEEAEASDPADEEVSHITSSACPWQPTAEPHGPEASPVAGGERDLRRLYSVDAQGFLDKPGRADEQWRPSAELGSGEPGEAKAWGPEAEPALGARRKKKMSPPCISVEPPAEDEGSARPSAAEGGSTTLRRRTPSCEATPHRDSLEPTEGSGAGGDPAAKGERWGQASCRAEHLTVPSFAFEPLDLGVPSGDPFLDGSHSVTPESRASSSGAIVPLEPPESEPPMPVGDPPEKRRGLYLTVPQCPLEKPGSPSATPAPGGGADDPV
T8 sequence (P07550 whole entry): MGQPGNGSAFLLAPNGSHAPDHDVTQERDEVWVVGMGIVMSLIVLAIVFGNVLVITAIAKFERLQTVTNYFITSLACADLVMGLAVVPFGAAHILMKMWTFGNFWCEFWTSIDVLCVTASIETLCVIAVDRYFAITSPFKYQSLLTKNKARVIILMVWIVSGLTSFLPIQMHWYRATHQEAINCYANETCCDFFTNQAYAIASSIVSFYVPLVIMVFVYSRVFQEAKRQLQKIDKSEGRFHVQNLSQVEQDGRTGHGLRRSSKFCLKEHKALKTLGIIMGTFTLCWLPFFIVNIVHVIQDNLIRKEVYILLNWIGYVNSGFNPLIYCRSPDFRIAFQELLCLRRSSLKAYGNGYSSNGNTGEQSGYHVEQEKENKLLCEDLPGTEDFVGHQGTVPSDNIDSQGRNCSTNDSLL
Opiate δ1 (OP1, DOP), sequence (P41143 whole entry): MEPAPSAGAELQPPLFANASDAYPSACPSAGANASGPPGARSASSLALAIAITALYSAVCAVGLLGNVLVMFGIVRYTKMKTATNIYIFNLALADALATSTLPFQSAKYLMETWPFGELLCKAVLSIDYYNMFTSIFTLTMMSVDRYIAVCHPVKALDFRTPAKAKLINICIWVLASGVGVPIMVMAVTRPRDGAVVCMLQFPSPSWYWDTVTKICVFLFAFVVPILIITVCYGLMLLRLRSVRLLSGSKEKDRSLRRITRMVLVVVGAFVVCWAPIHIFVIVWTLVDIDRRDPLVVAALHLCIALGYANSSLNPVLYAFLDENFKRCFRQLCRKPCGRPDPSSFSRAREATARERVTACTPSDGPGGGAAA

## Cc1nc(C)c2c(n1)sc1c(NCc3ccc(C(C)(C)O)cc3)nccc12 [22g]
[1]
  Papp A→B: 47 ×10⁻⁶ cm/s
  Papp B→A: 68 ×10⁻⁶ cm/s
hCav1.2
  inhibition at 10 µM: 13.9%
hCav3.2
  inhibition at 10 µM: 6.7%
hERG
  inhibition at 10 µM: 10.9%
hHCN2
  inhibition at 10 µM: 2.6%
hKv1.3
  inhibition at 10 µM: 9%
hKvLQT1/minK
  inhibition at 10 µM: 4.1%
Adrenergic α1B
  inhibition at 10 µM: 7%
Adrenergic β2
  inhibition at 10 µM: -5%
Androgen (Testosterone)
  % inh at 10 μM: 5%
Bradykinin B1
  inhibition at 10 µM: -1%
[2]
  % inh at 10 μM: 6%
Calcium Channel N-Type
  inhibition at 10 µM: 2%
Dopamine D3
  inhibition at 10 µM: 3%
Dopamine D4.2
  % inh at 10 μM: 4%
[3]
  % inh at 10 μM: 13%
Histamine H1
  inhibition at 10 µM: -11%
Imidazoline I2, Central
  % inh at 10 μM: -1%
Melatonin MT1
  inhibition at 10 µM: 7%
Muscarinic M1
  inhibition at 10 µM: 0%
Nicotinic Acetylcholine
  % inh at 10 μM: -2%
Opiate δ1 (OP1, DOP)
  inhibition at 10 µM: -2%
Opiate μ (OP3, MOP)
  inhibition at 10 µM: 7%
Prostanoid EP4
  inhibition at 10 µM: 16%
Rolipram
  % inh at 10 μM: 5%
[4]
  inhibition at 10 µM: -20%
[5]
  inhibition at 10 µM: 26%
[6]
  inhibition at 10 µM: 1%
